Test results published in patent publication US20070238711A1, “Combination Therapy with Glatiramer Acetate and Minocycline for the Treatment of Multiple Sclerosis” (priority 2004, published 2007).
Values joined by “and” are separate entries in the source; they are usually repeats but may differ in a detail not shown here. Equal values may be shown once.

How the values were obtained:
EAE [1] = experiment: Experiment 3: high doses of glatiramer acetate and minocycline on EAE; format: in vivo, C57/BL6 mice; details: Copaxone 375 μg, minocycline 37.5 mg/kg
Protocol: The effects of all treatments versus the control are analyzed histologically (hematoxylin-eosin and Luxol fast blue for evidence of inflammation and demyelination, respectively). Cellular infiltrates are characterized by CD3, CD4, CD8, CD56 and CD19 immunohistochemistry. Blind evaluation (on a qualitative scale from + to ++++) is conducted on the following: the density of perivascular infiltrates, the distance of migration of leukocytes into the CNS parenchyma from blood vessels, and the degree of demyelination. The neuropathological assessments are focused on the optic nerve, lumbar cord and brainstem.

moderate EAE = experiment: Experiment 2: low doses of glatiramer acetate and minocycline on moderate EAE; format: in vivo, C57/BL6 mice; details: sub-optimal doses, FIG. 4
Excerpt: The protocol of Experiment 1 was followed. […] The number of mice in each group was as follows: 8 in the vehicle group, 11 in the minocycline group, 10 in the Copaxone® group, and 9 in the combination group.

severe EAE = experiment: Experiment 1: low doses of glatiramer acetate and minocycline on severe EAE (MOG-induced); format: in vivo, C57/BL6 mice; parameters: key to EAE clinical score, individual mouse / EAE clinical score, group average (ave): composite score 0 = no symptoms, 14 = fully quadriplegic, 15 = death; key to Sum of Scores, individual mouse / Sum of Scores, group average (ave): sum of daily clinical scores (0–15 scale) over the experiment; details: for effect on clinical scores of EAE: severe EAE, sub-optimal doses, FIG. 2; for Sum of Scores, group average (ave) / Sum of Scores, individual mouse: sum of daily clinical scores over the entire experiment; for effect on disease severity: summary of Experiments 1-2, sub-optimal doses
Protocol: Intraperitoneal pertussis toxin was given on the day of MOG administration and also 2 days after. FIG. 1 presents a layout of the experimental design. Minocycline was administered intraperitoneally at a sub-optimal dose (25 mg/kg) when the first mouse in the entire experiment developed signs of EAE (See FIG. 1). Minocycline was administered daily until mice were sacrificed. […] Thus, we have developed a new system in order to better differentiate functional outcomes. […] For the tail: 0—no symptoms […] For each of the hind limbs or fore limbs, each assessed separately: 0—no symptoms […] Thus, a fully paralysed quadriplegic animal would attain a score of 14. […] Death is automatically given a score of 15. Another parameter that we have employed is the “sum of scores”. This refers to the addition of each daily clinical score over the entire period of the experiment. This is a reflection of the total burden of disease, and takes into account variations in onset of disease, and the daily scores.

EAE [2] = details: cited from earlier work
R-R MS = details: versus placebo, 9-month trial; cited from earlier work
multiple sclerosis = details: daily subcutaneous injections, 20 mg/injection; cited from earlier work
T lymphocytes = details: previous observation; cited from earlier work
[3] = Day 0, 15-point scale, Copaxone 250 μg, minocycline 25 mg/kg i.p.

Compound | effect on disease severity (EAE [1]) | effect on EAE severity / disease course (moderate EAE) | EAE clinical score, group average (ave) (severe EAE; Day 0) | EAE clinical score, individual mouse (severe EAE; [3]) | EAE clinical score, group average (ave) (severe EAE; Day 9) | EAE clinical score, individual mouse (severe EAE; Day 9) | EAE clinical score, group average (ave) (severe EAE; Day 10) | EAE clinical score, individual mouse (severe EAE; Day 10) | EAE clinical score, group average (ave) (severe EAE; Day 11) | EAE clinical score, individual mouse (severe EAE; Day 11) | EAE clinical score, group average (ave) (severe EAE; Day 12) | EAE clinical score, individual mouse (severe EAE; Day 12) | EAE clinical score, group average (ave) (severe EAE; Day 13) | EAE clinical score, individual mouse (severe EAE; Day 13) | EAE clinical score, group average (ave) (severe EAE; Day 14) | EAE clinical score, individual mouse (severe EAE; Day 14) | EAE clinical score, group average (ave) (severe EAE; Day 15) | EAE clinical score, individual mouse (severe EAE; Day 15) | EAE clinical score, group average (ave) (severe EAE; Day 16) | EAE clinical score, individual mouse (severe EAE; Day 16) | further results
CN(C)c1ccc(O)c2c1C[C@H]1C[C@H]3[C@H](N(C)C)C(O)=C(C(N)=O)C(=O)[C@@]3(O)C(O)=C1C2=O [Minocycline, [4S-(4∝,4a∝,5a∝,12a∝)]-4,7-bis(dimethylamino)-1,4,4a,5,5a,6,11,12a-octahydro-3,10,12,12a-tetrahydroxy-1,11-dioxo-2-naphthacenecarboxamide] | significantly decreases disease severity | did not elicit a clinical response | 0 | 0 | 4 | 3 (2×) and 4 (7×) | 4 | 4 (6×) and 6 (2×) and 3 | 6 | 8 and 5 and 6 (2×) and 7 (4×) and 4 | 7 | 7 (2×) and 6 and 9 and 8 (4×) and 4 | 8 | 7 and 9 (6×) and 4 and 10 | 9 | 8 (2×) and 10 (5×) and 4 and 9 | 9 | 11 and 10 (5×) and 9 and 4 and 6 | 9 | 11 and 10 (3×) and 8 (3×) and 9 and 3 | EAE clinical score, group average (ave) (severe EAE; Day 17): 8; EAE clinical score, individual mouse (severe EAE; Day 17): 10 (2×) and 8 (2×); EAE clinical score, group average (ave) (severe EAE; Day 18): 8; EAE clinical score, individual mouse (severe EAE; Day 18): 11 (2×) and 6; EAE clinical score, group average (ave) (severe EAE; Day 19): 7; EAE clinical score, individual mouse (severe EAE; Day 19): 8 and 11 and 6; EAE clinical score, group average (ave) (severe EAE; Day 20): 7; EAE clinical score, individual mouse (severe EAE; Day 20): 8 and 11 and 5; EAE clinical score, group average (ave) (severe EAE; Day 21): 7; EAE clinical score, individual mouse (severe EAE; Day 21): 7 and 9 and 5; EAE clinical score, group average (ave) (severe EAE; Day 22): 7; EAE clinical score, individual mouse (severe EAE; Day 22): 9 (2×) and 5; effect on clinical scores of EAE (severe EAE): ineffective; Sum of Scores, group average (ave) (severe EAE): 102.3; Sum of Scores, individual mouse (severe EAE): 112 and 121 and 93 and 109 (2×) and 55 and 102 and 122 and 98; effect on disease severity (severe EAE): did not markedly decrease disease severity; disease activity (EAE [2]; chronic relapsing remitting EAE): dramatically suppress disease activity; severity of disease (EAE [2]; mild EAE): attenuate the severity; course of disease (EAE [2]; severe EAE): delay the course
L-glutamic acid polymer with L-alanine, L-lysine and L-tyrosine, acetate (salt) [Copaxone ®] | significantly decreases disease severity | slight attenuation of disease course | 0 | 0 | 1 | 0 (7×) and 3 and 2 | 1 | 0 (5×) and 3 (2×) and 1 and 2 | 3 | 0 (3×) and 4 (2×) and 7 and 8 and 2 and 6 | 4 | 0 (2×) and 5 (2×) and 7 (2×) and 2 and 6 and 8 | 6 | 0 (2×) and 9 (3×) and 5 and 8 (2×) and 7 | 7 | 3 and 8 (5×) and 10 and 0 and 6 | 8 | 4 and 10 (6×) and 0 and 8 | 7 | 8 (4×) and 10 (2×) and 11 and 0 and 3 | gadolinium-enhancing lesions progressing to persistent black holes (R-R MS): significantly fewer; relapse rates, progression of disability, new MRI lesions, black holes (multiple sclerosis): reduce relapse rates; efficacy previously observed in the T cell transmigration assay (T lymphocytes): lack of efficacy; EAE clinical score, group average (ave) (severe EAE; Day 17): 7; EAE clinical score, individual mouse (severe EAE; Day 17): 8 (2×) and 10 (2×); EAE clinical score, group average (ave) (severe EAE; Day 18): 7; EAE clinical score, individual mouse (severe EAE; Day 18): 9 and 8 and 10; EAE clinical score, group average (ave) (severe EAE; Day 19): 7; EAE clinical score, individual mouse (severe EAE; Day 19): 7 and 8 and 12; EAE clinical score, group average (ave) (severe EAE; Day 20): 6; EAE clinical score, individual mouse (severe EAE; Day 20): 5 and 8 and 11; EAE clinical score, group average (ave) (severe EAE; Day 21): 6; EAE clinical score, individual mouse (severe EAE; Day 21): 7 (2×) and 9; EAE clinical score, group average (ave) (severe EAE; Day 22): 6; EAE clinical score, individual mouse (severe EAE; Day 22): 5 (2×) and 9; effect on clinical scores of EAE (severe EAE): slight benefit; Sum of Scores, group average (ave) (severe EAE): 75.56; Sum of Scores, individual mouse (severe EAE): 56 and 88 and 117 and 95 and 0 and 100 and 87 (2×) and 50; effect on disease severity (severe EAE): did not markedly decrease disease severity
